Assay results taken from patent US9409952B2, “Peptide-compound cyclization method” (Chugai Seiyaku Kabushiki Kaisha, priority 2011, dated 2016).
Starred links: 1 amine or outer side, 2 acyl side, 3 side chain; linkers in the order of their positions; H or OH if unused. Positions of bridges follow the written chain, without caps; N, C: chain ends. Non-standard residues stand in square brackets, D forms with d. Residues, ends and D or L forms follow the SMILES beside them. *: point of attachment. Cys(O)(CH2CO) = O=C([C@H](C[S+]([O-])CC(=O)[*:3])N[*:1])[*:2]; NMeF = CN[C@@H](Cc1ccccc1)C(=O)O; NMeI = CC[C@H](C)[C@H](NC)C(=O)O; NMeL = CN[C@@H](CC(C)C)C(=O)O; NMeA = CN[C@@H](C)C(=O)O; Piperidide = C1CCN(*)CC1; NPrGly = CCCNCC(=O)O; Sar = CNCC(=O)O; tBu = CC(C)(C)*

Legend:
[1] = Metabolic stability in mouse hepatic microsome; assay type: in vitro ADME; settings: male, mouse, liver microsomes, pH 7.4; Table 9, thioether versus sulfoxide; read-out: Mouse Hepatic Microsome CLh, int
Method: The obtained compound was metabolically reacted at a concentration of 2 uM with mouse serum (male/female mixed, Valley Biomedical, USA) (adjusted to pH 7.4 with 33.5 mM HEPES buffer) for two hours. Deproteinization treatment with acetonitrile was provided over time, the amount of the remaining unchanged compound was analyzed using LC/MS, and the metabolic half-life (t1/2) was calculated. A microsome solution prepared at 0.5 mg protein/mL from mouse hepatic microsome and small intestinal microsome (male, XENOTECH, USA) using 100 mM phosphate buffer (pH 7.4) was metabolically reacted with the compound at a concentration of 1 uM for 30 minutes in the presence or absence of NADPH. Deproteinization treatment with acetonitrile was provided over time, the amount of the remaining unchanged compound was analyzed using LC/MS, and the hepatic-intrinsic clearance (CLh, int) and the small intestinal-intrinsic clearance (CLg, int) were calculated (Table 7). Such peptides were sufficiently slowly metabolized by hydrolysis with peptidases or the like in mouse sera and microsomes, contrary to peptides composed of natural amino acids having low lipophilicity.
Metabolic stability tests were carried out in the same manner as shown in 2-1.

[2] = Metabolic stability in human hepatic microsome; assay type: in vitro ADME; settings: microsomes, pH 7.4; human hepatic microsome, NADPH(+); read-out: CL NADPH(+)
[3] = Mouse PK test of peptides (intravenous and oral administration); settings: male, C57BL/6J, in vivo, 20 mg/kg
[4] = PAMPA (parallel artificial membrane permeability assay); assay type: in vitro ADME; settings: PAMPA; membrane permeation rate (Pe); 50 mM MOPSO buffer pH 6.5 with 5.0% glycocholic acid, 37° C., 18 hours; read-out: iPAMPA Pe
Outline: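 Artificial membrane was 10% (w/v) egg lecithin plus 0.5% (w/v) cholesterol in dodecane on a PVDF filter. A 10 mM DMSO stock was added at 0.5% (v/v) to donor buffer (50 mM MOPSO, pH 6.5, 5.0% glycocholic acid). After 18 h at 37 °C, LC/MS or LC/UV gave donor and acceptor levels for Pe.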

Row | Compound | microsomal CLint at 1 uM [1] [µL/min/mg] | microsomal CLint at 1 uM [2] [µL/min/mg] | AUC ([3]; iv) [ng·h/mL] | C0 ([3]; iv) [ng/mL] | Vd ([3]; iv) [L/kg] | clearance ([3]; iv) [mL/min/kg] | half-life ([3]; iv) [h] | AUC ([3]; po) [ng·h/mL] | CL/F ([3]; po) [mL/min/kg] | Cmax ([3]; po) [ng/mL] | Tmax ([3]; po) [h] | bioavailability ([3]; po) [%] | Papp at 18 hours, 50 µM [4] [×10⁻⁶ cm/s] | half-life ([3]; po) [h]
1 | CC[C@H](C)[C@H]1C(=O)N[C@H](C(=O)N2CCCCC2)C[S+]([O-])CC(=O)N(C)[C@@H](Cc2ccccc2)C(=O)N(C)[C@@H](C)C(=O)N(C)[C@@H](Cc2ccccc2)C(=O)N(C)[C@@H](CC(C)C)C(=O)N[C@@H]([C@@H](C)O)C(=O)N(C)CC(=O)N(C)[C@@H](CC(C)C)C(=O)N[C@@H](COC(C)(C)C)C(=O)N1C (stereo partly drawn) [Compound P-116, (5S,8S,11S,14S,17S,23S,26S,29S,32R)-5,11-dibenzyl-26-(tert-butoxymethyl)-29-((S)-sec-butyl)-17-((R)-1-hydroxyethyl)-14,23-diisobutyl-4,7,8,10,13,19,22,28-octamethyl-32-(piperidine-1-carbonyl)-1-thia-4,7,10,13,16,19,22,25,28,31-decaazacyclotritriacontane-3,6,9,12,15,18,21,24,27,30-decone 1-oxide] ([NMeF][NMeA][NMeF][NMeL]T[Sar][NMeL]S(tBu)[NMeI][Cys(O)(CH2CO)]-Piperidide; lactam N-10) | 56.5 |  |  |  |  |  |  |  |  |  |  |  |  | 
2 | CC[C@H](C)[C@H]1C(=O)N[C@H](C(=O)N2CCCCC2)C[S+]([O-])CC(=O)N(C)[C@@H](C)C(=O)N[C@@H](Cc2ccccc2)C(=O)N(C)[C@@H](CC(C)C)C(=O)N[C@@H]([C@@H](C)O)C(=O)N(C)CC(=O)N(C)[C@@H](CC(C)C)C(=O)N[C@@H](COC(C)(C)C)C(=O)N1C (stereo partly drawn) [Compound P-117, (5S,8S,11S,14S,20S,23S,26S,29R)-8-benzyl-23-(tert-butoxymethyl)-26-((S)-sec-butyl)-14-((R)-1-hydroxyethyl)-11,20-diisobutyl-4,5,10,16,19,25-hexamethyl-29-(piperidine-1-carbonyl)-1-thia-4,7,10,13,16,19,22,25,28-nonaazacyclotriacontane-3,6,9,12,15,18,21,24,27-nonone 1-oxide] ([NMeA]F[NMeL]T[Sar][NMeL]S(tBu)[NMeI][Cys(O)(CH2CO)]-Piperidide; lactam N-9) | 36 |  |  |  |  |  |  |  |  |  |  |  |  | 
3 | CC(C)C[C@@H]1NC(=O)[C@H](Cc2ccccc2)N(C)C(=O)[C@H](Cc2ccccc2)N(C)C(=O)[C@H](CC(C)C)NC(=O)[C@H](C)N(C)C(=O)[C@H]([C@@H](C)O)NC(=O)[C@H](C)N(C)C(=O)C[C@@H](C(=O)N2CCCCC2)NC(=O)[C@H](CC(C)C)N(C)C1=O [DP-125] ([NMeA]T[NMeA]L[NMeF][NMeF]L[NMeL]D-Piperidide; lactam N-9) |  | 189 | 35400 | 46400 | 0.545 | 9.49 | 1.44 | 12100 | 27.5 | 3090 | 3.5 | 34.6 | 55 | 
4 | CC[C@H](C)[C@H]1C(=O)N[C@H](C(=O)N2CCCCC2)CC(=O)N[C@H](C(C)C)C(=O)N(C)[C@@H](Cc2ccccc2)C(=O)N(C)[C@@H](CC(C)C)C(=O)N[C@@H]([C@@H](C)O)C(=O)N(C)CC(=O)N(C)[C@@H](CC(C)C)C(=O)N[C@@H](COC(C)(C)C)C(=O)N1C [DP-265] ([dV][NMeF][NMeL]T[Sar][NMeL]S(tBu)[NMeI]D-Piperidide; lactam N-9) |  | 58 | 35300 | 58300 | 0.713 | 9.48 | 1.82 | 5120 | 65.1 | 2850 | 0.67 | 14.5 | 42 | 1.96
5 | CCCN1CC(=O)N(C)[C@@H](CC(C)C)C(=O)N[C@@H]([C@@H](C)O)C(=O)N(C)[C@@H](C)C(=O)N(C)[C@@H](CC(C)C)C(=O)N(C)[C@@H]([C@@H](C)CC)C(=O)N[C@@H](COC(C)(C)C)C(=O)N[C@H](C(=O)N2CCCCC2)CC(=O)N(C)[C@@H](C)C(=O)N(C)[C@@H](Cc2ccccc2)C1=O [DP-540] ([NMeA][NMeF][NPrGly][NMeL]T[NMeA][NMeL][NMeI]S(tBu)D-Piperidide; lactam N-10) |  | 67 | 41400 | 48100 | 0.803 | 8.16 | 1.63 | 9800 | 35.8 | 1870 | 1.83 | 23.7 | 36 | 3.11
